Assay results reported in article PMC6116579, “Catalytic and Structural Characterization of a Browning-Related Protein in Oriental Sweet Melon (Cucumis Melo var. Makuwa Makino)” (Frontiers in Chemistry, 2018).

Target: T1, BRP (browning-related protein with PPO activity; matched to endochitinase MCHT-2) (Cucumis melo, UniProt Q9AVA8)
T1 construct: native, partially purified from fruit (ammonium sulfate, DEAE Sepharose, Sephacryl S200); about 18 kDa SDS-PAGE, 37 kDa native PAGE, homodimer
T1 sequence (Q9AVA8 21-311): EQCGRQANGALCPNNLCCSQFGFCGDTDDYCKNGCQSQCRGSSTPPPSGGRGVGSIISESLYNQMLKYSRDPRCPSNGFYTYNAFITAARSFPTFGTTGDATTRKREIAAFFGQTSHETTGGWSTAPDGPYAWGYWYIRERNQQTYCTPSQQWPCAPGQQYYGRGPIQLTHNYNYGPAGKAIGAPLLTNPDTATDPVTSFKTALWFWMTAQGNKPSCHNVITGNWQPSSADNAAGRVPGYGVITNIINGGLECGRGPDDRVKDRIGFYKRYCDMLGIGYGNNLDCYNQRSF
Experiment: absorbance at […] nm, Lineweaver-Burk
Type: biochemical
Conditions: oxidation by air oxygen; 0.05 M Tris-HCl pH 7.0, 25 °C

- Km: 42.8 mM
Compound: Oc1cccc(O)c1O [Pyrogallol]
